In patent publication US10105357B2, “Indication of antibiotic drugs for preparation of cancer inhibition pharmaceutical composition” (LAUNX BIOMEDICAL CO., LTD., priority 2014, dated 2018):
Structures can show the parent of a compound that is named as a salt. Where two headings read alike, the source gives them in different places.

Columns and labels:
Assay type in all cases: cell-based, human
cancer cell lines = assay: Cell viability analysis (WST-1) on cancer cell lines; conditions: drug 10 μM, 72 hours, WST-1; Table 3
[1] = test system: TSGH-8301 (Urinary Bladder Carcinoma); assay: Cell viability analysis, bladder cancer TSGH-8301; conditions: for viability at 10 µM: Homo sapiens
[2] = test system: LoVo (Colorectal Adenocarcinoma); assay: Cell viability analysis, colon cancer LoVo; conditions: for viability at 10 µM: Homo sapiens, LoVo
[3] = test system: A549 (Lung Adenocarcinoma); assay: Cell viability analysis, lung cancer A549; conditions: for viability at 10 µM: Homo sapiens
[4] = test system: AGS (Gastric Adenocarcinoma); assay: Cell viability analysis, gastric cancer AGS; conditions: Homo sapiens
[5] = test system: HeLa (Cervix Adenocarcinoma); assay: Cell viability analysis, cervical cancer HeLa; conditions: Homo sapiens, HeLa
[6] = test system: HL-60 (Acute Promyelocytic Leukemia); assay: Cell viability analysis, leukemia HL-60; conditions: Homo sapiens
[7] = test system: HepG2 (Hepatocellular Carcinoma); assay: Cell viability analysis, hepatic cancer HepG2; conditions: Homo sapiens
[8] = test system: MKN-45 (Gastric Adenocarcinoma); assay: Cell viability analysis, gastric cancer MKN-45; conditions: for viability at 10 µM: Homo sapiens
[9] = test system: MCF7 (Mammary Gland, Adenocarcinoma); assay: Cell viability analysis, breast cancer MCF7; conditions: Homo sapiens
[10] = test system: A375 (Amelanotic Melanoma); assay: Cell viability analysis, skin cancer A375; conditions: for viability at 10 µM: Homo sapiens
[11] = test system: PC3 (p53−) (Prostate Adenocarcinoma); assay: Cell viability analysis, prostate cancer PC3; conditions: for viability at 10 µM: Homo sapiens
[12] = test system: HI650 (Lung Adenocarcinoma); assay: Cell viability analysis, lung cancer HI650; conditions: Homo sapiens
[13] = 72 h, read-out: cell viability (survival rate), TSGH, drug 10 μM, 72 hours, WST-1, OD450 nm
[14] = 72 h, read-out: cell viability (survival rate), LoVo, drug 10 μM, 72 hours, WST-1, OD450 nm
[15] = A549, 72 h, read-out: cell viability (survival rate), A549, drug 10 μM, 72 hours, WST-1, OD450 nm
[16] = 72 h, read-out: cell viability (survival rate), AGS, drug 10 μM, 72 hours, WST-1, OD450 nm
[17] = 72 h, read-out: cell viability (survival rate), HeLa, drug 10 μM, 72 hours, WST-1, OD450 nm
[18] = HL-60, 72 h, read-out: cell viability (survival rate), HL-60, drug 10 μM, 72 hours, WST-1, OD450 nm
[19] = HepG2, 72 h, read-out: cell viability (survival rate), HepG2, drug 10 μM, 72 hours, WST-1, OD450 nm
[20] = MKN-45, 72 h, read-out: cell viability (survival rate), MKN-45, drug 10 μM, 72 hours, WST-1, OD450 nm
[21] = MCF7, 72 h, read-out: cell viability (survival rate), MCF7, drug 10 μM, 72 hours, WST-1, OD450 nm
[22] = A-375, 72 h, read-out: cell viability (survival rate), A375, drug 10 μM, 72 hours, WST-1, OD450 nm
[23] = 72 h, read-out: cell viability (survival rate), PC3, drug 10 μM, 72 hours, WST-1, OD450 nm
[24] = NCI-H1650, 72 h, read-out: cell viability (survival rate), H1650, drug 10 μM, 72 hours, WST-1, OD450 nm
[25] = 72 h, drug 10 μM, 72 hours, WST-1, OD450 nm, read-out: cell viability (survival rate), TSGH
[26] = A549, 72 h, drug 10 μM, 72 hours, WST-1, OD450 nm, read-out: cell viability (survival rate), A549
[27] = 72 h, drug 10 μM, 72 hours, WST-1, OD450 nm, read-out: cell viability (survival rate), AGS
[28] = 72 h, drug 10 μM, 72 hours, WST-1, OD450 nm, read-out: cell viability (survival rate), HeLa
[29] = HL-60, 72 h, drug 10 μM, 72 hours, WST-1, OD450 nm, read-out: cell viability (survival rate), HL-60
[30] = HepG2, 72 h, drug 10 μM, 72 hours, WST-1, OD450 nm, read-out: cell viability (survival rate), HepG2
[31] = MKN-45, 72 h, drug 10 μM, 72 hours, WST-1, OD450 nm, read-out: cell viability (survival rate), MKN-45
[32] = MCF7, 72 h, drug 10 μM, 72 hours, WST-1, OD450 nm, read-out: cell viability (survival rate), MCF7
[33] = A-375, 72 h, drug 10 μM, 72 hours, WST-1, OD450 nm, read-out: cell viability (survival rate), A375
[34] = 72 h, drug 10 μM, 72 hours, WST-1, OD450 nm, read-out: cell viability (survival rate), PC3
[35] = NCI-H1650, 72 h, drug 10 μM, 72 hours, WST-1, OD450 nm, read-out: cell viability (survival rate), H1650

Compound	inhibition effect on different cancer cell lines (cancer cell lines)	viability at 10 µM [1, 13] [%]	viability at 10 µM [2, 14] [%]	viability at 10 µM [3, 15] [%]	viability at 10 µM [4, 16] [%]	viability at 10 µM [5, 17] [%]	viability at 10 µM [6, 18] [%]	viability at 10 µM [7, 19] [%]	viability at 10 µM [8, 20] [%]	viability at 10 µM [9, 21] [%]	viability at 10 µM [10, 22] [%]	viability at 10 µM [11, 23] [%]	viability at 10 µM [12, 24] [%]	further results
Cc1cn([C@@H]2C[C@@H](O)[C@H](CO)O2)c(=O)[nH]c1=O [Telbivudine (Sebivo, Tyzeka), Telbivudine]	significant inhibition effect	50.4	65.3	43.7	27.5	51.9	100	94.4	36.2	31.9	57.5	53.6	67.5	–
CO/N=C(\C(=O)N[C@@H]1C(=O)N2C(C(=O)OCOC(=O)C(C)(C)C)=C(/C=C\c3scnc3C)CS[C@H]12)c1csc(N)n1 [Cefditoren pivoxil]	significant inhibition effect	–	83.5	–	–	–	–	–	–	–	–	–	–	viability at 10 µM [1, 25]: 94.8%; viability at 10 µM [3, 26]: 45.7%; viability at 10 µM [4, 27]: 86.5%; viability at 10 µM [5, 28]: 58.7%; viability at 10 µM [6, 29]: 110%; viability at 10 µM [7, 30]: 96.9%; viability at 10 µM [8, 31]: 70.5%; viability at 10 µM [9, 32]: 38.4%; viability at 10 µM [10, 33]: 69.1%; viability at 10 µM [11, 34]: 83.9%; viability at 10 µM [12, 35]: 80.7%
CN(C)[C@@H]1C(O)=C(C(N)=O)C(=O)[C@@]2(O)C(O)=C3C(=O)c4c(O)cccc4[C@@](C)(O)[C@H]3[C@H](O)[C@@H]12 [Oxytetracycline dihydrate]	significant inhibition effect	–	–	–	71.7	65.6	99.3	93.4	–	34.2	–	–	73.8	cell viability (survival rate), TSGH ([1]; human, 72 h, 10 µM): 53.4; cell viability (survival rate), LoVo ([2]; human, 72 h, 10 µM): 47.0; cell viability (survival rate), A549 ([3]; human, 72 h, 10 µM): 22.1; cell viability (survival rate), MKN-45 ([8]; human, 72 h, 10 µM): 81.4; cell viability (survival rate), A375 ([10]; human, 72 h, 10 µM): 72.5; cell viability (survival rate), PC3 ([11]; human, 72 h, 10 µM): 42.1
Clc1cccc(Cl)c1N=C1NCCN1 [Clonidine hydrochloride (Catapres), Clonidine hydrochloride]	significant inhibition effect	28.5	72.1	37.3	36.4	72	128	83.7	48.8	68.8	62.5	40.7	64.1	–
C=C[C@]1(C)C[C@@H](OC(=O)CSC(C)(C)CNC(=O)[C@H](N)C(C)C)[C@]2(C)[C@H](C)CC[C@]3(CCC(=O)[C@H]32)[C@@H](C)[C@@H]1O [Valnemulin HCl]	significant inhibition effect	66.9	73.6	62.2	75.5	117	93.3	126	91.4	66.7	57.1	83.4	78.8	–
Cc1nnc(NS(=O)(=O)c2ccc(N)cc2)s1 [Sulfamethizole (Proklar), Sulfamethizole]	significant inhibition effect	114	86.4	90.4	86.6	105	104	95	84.6	100	99.1	86	99.2	–
Nc1ccc(S(=O)(=O)Nc2ccccn2)cc1 [Sulfapyridine (Dagenan), Sulfapyridine]	significant inhibition effect	64.6	84.6	64.5	71.9	71.2	111	98.9	53.8	54.7	77.2	108	69.5	–
COc1ccc2c(c1)c(CC(=O)OCC(=O)O)c(C)n2C(=O)c1ccc(Cl)cc1 [Acemetacin (Emflex), Acemetacin]	significant inhibition effect	99.4	94.7	88.1	69	70.9	120	110	103	87.3	68.4	90.5	78.2	–
O=C(Nc1ccccc1)c1ccccc1O [Salicylanilide]	significant inhibition effect	–	–	–	–	–	–	–	–	–	–	–	–	viability at 10 µM ([1]; drug 10 μM, 72 hours, WST-1, OD450 nm, read-out: cell viability (survival rate), TSGH): 108%; viability at 10 µM ([2]; drug 10 μM, 72 hours, WST-1, OD450 nm, read-out: cell viability (survival rate), LoVo): 86.2%; viability at 10 µM ([3]; A549, drug 10 μM, 72 hours, WST-1, OD450 nm, read-out: cell viability (survival rate), A549): 62.1%; viability at 10 µM ([4]; drug 10 μM, 72 hours, WST-1, OD450 nm, read-out: cell viability (survival rate), AGS): 77.8%; viability at 10 µM ([5]; drug 10 μM, 72 hours, WST-1, OD450 nm, read-out: cell viability (survival rate), HeLa): 118%; viability at 10 µM ([6]; HL-60, drug 10 μM, 72 hours, WST-1, OD450 nm, read-out: cell viability (survival rate), HL-60): 71.1%; viability at 10 µM ([7]; HepG2, drug 10 μM, 72 hours, WST-1, OD450 nm, read-out: cell viability (survival rate), HepG2): 97.2%; viability at 10 µM ([8]; MKN-45, drug 10 μM, 72 hours, WST-1, OD450 nm, read-out: cell viability (survival rate), MKN-45): 83.5%; viability at 10 µM ([9]; MCF7, drug 10 μM, 72 hours, WST-1, OD450 nm, read-out: cell viability (survival rate), MCF7): 106%; viability at 10 µM ([10]; A-375, drug 10 μM, 72 hours, WST-1, OD450 nm, read-out: cell viability (survival rate), A375): 92.8%; viability at 10 µM ([11]; drug 10 μM, 72 hours, WST-1, OD450 nm, read-out: cell viability (survival rate), PC3): 89.7%; viability at 10 µM ([12]; NCI-H1650, drug 10 μM, 72 hours, WST-1, OD450 nm, read-out: cell viability (survival rate), H1650): 80.5%
C[C@H](CCC(=O)O)[C@H]1CC[C@H]2[C@@H]3[C@H](O)C[C@@H]4C[C@H](O)CC[C@]4(C)[C@H]3CC[C@]12C [Chenodeoxycholic acid]	significant inhibition effect	–	82.7	–	–	–	–	–	–	–	–	–	–	viability at 10 µM [1, 25]: 88.8%; viability at 10 µM [3, 26]: 96.3%; viability at 10 µM [4, 27]: 68.9%; viability at 10 µM [5, 28]: 69.1%; viability at 10 µM [6, 29]: 118%; viability at 10 µM [7, 30]: 94.8%; viability at 10 µM [8, 31]: 51.8%; viability at 10 µM [9, 32]: 74.5%; viability at 10 µM [10, 33]: 64.2%; viability at 10 µM [11, 34]: 71.4%; viability at 10 µM [12, 35]: 68.1%
